Test results as given in patent US8173360B2, “Cell death inhibitor” (Takeda Pharmaceutical Company Limited, priority 2002, dated 2012).

Experiments:
[1] = test system: Human normal articular chondrocytes; test: Inhibitory activity against cell death of human articular chondrocytes induced by NO (MTT); format: cell-based; details: for Cell Death Inhibition Rate: 1.5 mM sodium nitroprusside 5 hours, mean ±SD
Description: Human normal articular chondrocytes (Clonetics, Inc.) were proliferated in a growth medium for articular chondrocytes (CGM, Clonetics, Inc.) in monolayer culture. Then, the cells were suspended in 1.2% alginate-containing 155 mM NaCl solution in a density of 2.0×10^6 cells/ml, and beads having a 2 mm diameter were prepared using a syringe with a 22 gauge needle. The beads were incubated in a differentiation medium for articular chondrocytes (CDM, Clonetics, Inc.) charged in a 96-well round-bottomed plate (1 bead/well, manufactured by FALCON) for further 7 days. The medium was replaced by α-modified minimum essential medium containing Compound 1 (0.1 μM or 1 μM) and 10% fetal cow serum, followed by incubation for 48 hours and then for 5 hours in the co-presence of 1.5 mM sodium nitroprusside (NO generator, manufactured by Sigma). As control drugs, caspase 3 inhibitor (Z-DEVD-FMK (SEQ ID NO: 5), 100 μM, manufactured by R & D Systems, Inc.) and caspase 9 inhibitor (Z-LEHD-FMK (SEQ ID NO: 6), 100 μM, manufactured by R & D Systems, Inc.) were similarly monitored for their activities. After completion of the experiment, alginate was removed and the cell survival rate was determined by the MTT technique.
In the table, the numerical values indicate mean values (±SD) of the cell death inhibition rates as converted from the measurement data by the MTT technique. The cell survival rate after the addition of 1.5 mM sodium nitroprusside (without addition of either Compound 1 or control drug) was 31.9%.

[2] = test system: primary cardiomyocytes derived from rat neonates; test: Inhibitory activity against myocardial cell death induced by doxorubicin; format: cell-based; details: doxorubicin 200 μM, 18 hours; sample added 3 hours before
Description: Medium 199 and a sample to be tested were added thereto, followed by incubation for 3 hours. After the incubation, doxorubicin (DOX: final concentration of 200 μM) was added to the mixture, which was incubated for further 18 hours to induce cell death. Subsequently, fetal cow serum was added thereto to reach 10%. […] Thus, the myocardial cell death inhibitory activity was examined.

[3] = test system: primary cardiomyocytes derived from rat neonates; test: Inhibition of serum depletion-induced myocardial cell death (WST-8 viable cell count); format: cell-based
Source text: Neonates (within one day after birth) were obtained from pregnant Wistar rats purchased from Charles River Japan, Inc. and anesthetized with ether. After sterilization with 70% ethanol, the heart was removed with forceps. After washing with phosphate buffered saline (manufactured by Takara Co., Ltd., T900), the heart removed was minced with surgical scissors. The pieces of tissue were washed 4 or 5 times with phosphate buffered saline to remove most of non-cardiomyocytes derived from blood. To the pieces of tissue corresponding to 10 neonates, 5 ml of an enzyme solution [which is a solution of trypsin (1.25 mg) (manufactured by Difco) and collagenase (0.25 mg) (manufactured by Sigma) in phosphate buffer (1 ml)] was added. The mixture was stirred for 15 minutes with a stirrer while maintaining at 37° C. After 2.5 ml of the enzyme solution was replenished, the mixture was stirred for further 15 minutes, and this procedure was repeated twice. Subsequently, Medium 199 (manufactured by Gibco) containing 10% fetal cow serum (manufactured Biowicker, Inc.) was added to the mixture in a half volume of the enzyme solution to terminate the enzymatic reaction. After filtering through a cell strainer (manufactured by Falcon), the mixture was centrifuged at 400×g for 5 minutes to collect the cells.
The cells were then recovered, filtered through a cell strainer and centrifuged at 400×g for 5 minutes to collect primary cardiomyocytes derived from rat neonates.
Next, the primary cardiomyocytes derived from rat neonates (corresponding 10 neonates) were suspended in 2 ml of a hypotonic solution [solution obtained by dissolving NH4Cl (8.29 g), KHCO3 (1.0 g) and EDTA/2Na (ethylenediaminetetraacetic acid disodium; manufactured by Dojin Chemical Laboratory) (37 mg) in water (1 L)]. The suspension was allowed to stand for 3 minutes to disrupt erythrocytes. To the suspension 10 ml of Medium 199 containing 10% fetal cow serum was added, and the mixture was centrifuged at 400×g for 5 minutes to collect the primary cardiomyocytes derived from rat neonates. […] An aliquot of the cardiomyocytes suspension obtained was taken out and 0.3% trypan blue was added thereto. The mixture was gently stirred and the count of cardiomyocytes was counted with a hemocytometer.
Incubation was continued for further 4 days to induce cell death. […]
The mean value (±SD) in the minimum effective concentration of Compound 1 required for inhibiting the cell death was 0.015±0.011 μM. The concentration of Compound 1 required for increasing the mean cell count by 30% when compared to the cell count without the addition of Compound 1 was determined to be the minimum effective concentration. […]

rat MIF = biological target: T1, rat MIF (Rattus norvegicus, UniProt P30904); test: Binding to immobilized rat MIF by surface plasmon resonance (BIACORE 3000); details: 10 μM in PBS, rat MIF immobilized on sensor chip CM5
T1 construct: the region encoding MIF was amplified from the complementary DNA (cDNA) library of rat and mouse brains; made in house; host or cells: Escherichia coli BL21 (DE3)
Description: The binding of rat MIF obtained in REFERENCE EXAMPLE 6 to Compound 1 obtained in REFERENCE EXAMPLE 1 was analyzed using BIACORE 3000 (manufactured by Biacore).
Rat MIF was immobilized on a sensor chip CM5 (manufactured by Biacore). Then, phosphate buffered saline (PBS) containing 10 μM of Compound 1 was flown over the sensor chip and changes in the surface plasmon resonance signal were monitored as the binding of the compound to rat MIF.
Rat MIF obtained in REFERENCE EXAMPLE 6 was immobilized on a sensor chip CM5 (manufactured by Biacore Co., Ltd.). Thereafter, phosphate buffered saline (PBS) containing 10 μM of 3-[2-(4-oxo-4H-1,3-benzothiazin-2-yl)-4-pyridyl]propionic acid (the compound of EXAMPLE 308 described in WO 03/020719) was flown over the sensor chip and changes in surface plasmon resonance signal were monitored as the binding of the compound to rat MIF.

**Q.** What does the source list for `O=c1nc(-c2ccccn2)sc2ccccc12` [Compound 1, 2-(2-Pyridyl)-4H-1,3-benzothiazin-4-one]?
**A.** Cell Death Inhibition Rate ([1]; 0.1 μM): 44.7 ± 0.9; Cell Death Inhibition Rate ([1]; 1 μM): 57.6 ± 7.0; inhibitory activity against cell death of human articular chondrocytes induced by NO ([1]; statement in words): has the inhibitory activity against the cell death of human articular chondrocytes induced by NO; inhibition of myocardial cell death induced by doxorubicin [2]: exhibits the activity of inhibiting myocardial cell death induced by doxorubicin; minimum effective concentration required for inhibiting the cell death ([3]; concentration increasing mean cell count by 30% vs no compound, serum-free 4 days, mean ±SD, 3 runs): 0.015 ± 0.011 µM; myocardial cell death inhibitory activity ([3]; serum depletion, 4 days, WST-8 viable cell count): exhibit the activity of inhibiting myocardial cell death; binding of the compound to rat MIF (changes in surface plasmon resonance signal) (rat MIF): binds to MIF
